Patent US20100055183A1 (OsteoGeneX Inc., priority 2008, published 2010)

Experiments:
mouse = assay: Mouse bone formation assay, micro-CT after complete dosing schedule; type: in vivo; conditions: versus control solution
Source text: (§1) Compounds useful in the methods of the present invention can be identified via a variety of methods known to one of skill in the art. Several exemplary methods for identifying such antagonists are described herein, including cell-based and in vitro techniques (Journal of Bone and Mineral Research 2006, 21(11), 1738-1749). A general method of identifying SOST antagonists involves evaluating the effects of antagonist candidates on bone formation under controlled conditions. Preferably bone formation is determined using micro-CT techniques on live animals. Preferred animals include rodents, more preferred are primates. Femur, tibia and vertebrae bones are particularly useful subjects for such study.
Briefly, the test animal is treated with a predetermined dose of a SOST antagonist candidate. […]
Once the dosing schedule has been completed, both test and control animals are examined to determine the quantity of bone formation present. […] Where necessary, levels of bone formation can be calculated by determining the volume of bone formation present in each animal. […]
For example, the mouse test animal is treated with a predetermined dose of a SOST antagonist candidate for a complete dosing schedule. […] Once the dosing schedule has been completed, both test and control animals are examined with sacrifice using micro-CT to determine the quantity of bone formation present.

Wnt pathway = assay: Modulation of the Wnt pathway (FIGS. 1 and 2); conditions: doses of 2.5 ng (low), 60 ng (medium), 125 ng (high)
Source text: as §1

C57BL/6 mice [1] = assay: Serum osteocalcin bone formation marker, EIA Elisa, in treated mice; type: in vivo, mouse; conditions: four month old male C57BL/6 mice, 5 mg/kg, daily i.p. for 30 days
Source text: […] Study endpoints included a biochemical marker of bone formation; osteocalcin, measured by EIA Elisa, and measurement of tibia trabecular bone volume by mico-CT analysis.

C57BL/6 mice [2] = assay: Bone volume in treated mice by pQCT / micro-CT analysis; type: in vivo, mouse; conditions: four month old male C57BL/6 mice, 0.1 mg/kg, daily i.p. for 30 days
Protocol: Four month old male C57BL/6 mice were treated daily with saline vehicle or the sclerostin inhibitor of trimeprazine tartrate at 0.1 mg/kg (via i.p) for 30 days. […]

Row | Molecule | bone growth (quantity of bone formation present) (mouse) | modulation of the Wnt pathway to promote bone growth (Wnt pathway) | percent increase in serum osteocalcin bone formation marker over saline controls (C57BL/6 mice [1]) [%] | increase in bone volume for the femur over baseline controls (C57BL/6 mice [2])
1 | CCN(CC)C(C)CN1c2ccccc2Sc2ccccc21 (stereo not drawn) [ethopropazine] | promoting bone growth | modulating the Wnt pathway | – | –
2 | CC(CN(C)C)CN1c2ccccc2Sc2ccccc21 (stereo not drawn) [trimeprazine] | promoting bone growth | modulating the Wnt pathway | – | –
3 | trimeprazine tartrate | – | – | 46 | about 8%
